Experiment [1] addresses T1, Serine protease HTRA1 (Homo sapiens, UniProt Q92743). The experiment is described as follows: Inhibition of HTRA1 (unknown origin).
The target in experiment [2] is Chymotrypsin (Homo sapiens) (UniProt Q99895+P17538+P40313+Q6GPI1). Kind of experiment: Inhibition of chymotrypsin (unknown origin) at 1 uM. It is filed as protein assay.
The target of experiment [3] is Kallikrein-7 (Homo sapiens) (UniProt P49862). Kind of experiment: Inhibition of kallikrein-7 (unknown origin) at 1 uM.
Experiment [4] has as its target T2, Caspase-6 (Homo sapiens) (UniProt P55212).
T2 sequence (whole entry): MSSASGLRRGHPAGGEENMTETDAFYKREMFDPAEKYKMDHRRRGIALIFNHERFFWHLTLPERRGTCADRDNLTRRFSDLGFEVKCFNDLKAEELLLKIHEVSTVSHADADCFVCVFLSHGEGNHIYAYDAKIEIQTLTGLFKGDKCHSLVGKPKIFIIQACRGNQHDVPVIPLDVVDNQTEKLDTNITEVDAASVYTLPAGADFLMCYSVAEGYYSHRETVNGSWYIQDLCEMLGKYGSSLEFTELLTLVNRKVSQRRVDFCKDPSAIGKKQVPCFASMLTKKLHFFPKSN
The experiment is described as follows: Inhibition of Caspase-6 (unknown origin) at 1 uM.

Experiment [5] addresses T3, Caspase-9 (Homo sapiens) (UniProt P55211).
T3 sequence (whole entry): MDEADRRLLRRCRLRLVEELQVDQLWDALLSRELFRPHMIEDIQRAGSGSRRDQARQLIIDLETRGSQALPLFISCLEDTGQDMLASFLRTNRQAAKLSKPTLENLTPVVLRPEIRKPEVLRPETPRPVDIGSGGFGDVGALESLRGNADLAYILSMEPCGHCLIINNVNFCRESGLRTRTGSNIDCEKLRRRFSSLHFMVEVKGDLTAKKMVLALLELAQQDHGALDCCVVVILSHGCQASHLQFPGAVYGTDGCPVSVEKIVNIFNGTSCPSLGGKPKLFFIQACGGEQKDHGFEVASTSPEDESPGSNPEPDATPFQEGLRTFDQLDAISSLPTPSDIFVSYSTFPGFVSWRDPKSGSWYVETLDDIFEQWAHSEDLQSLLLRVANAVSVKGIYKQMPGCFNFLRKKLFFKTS
The experiment is described as follows: Inhibition of Caspase-9 (unknown origin) at 1 uM.

Experiment [6] deals with T1, Serine protease HTRA1. The experiment is described as follows: Inhibition of HTRA1 (unknown origin) assessed as residual activity at 1 uM relative to control.

Calls of active or inactive are those of the source. The rule behind the calls is not given here. Square brackets hold non-standard residues; d marks the D form. Peptide text beside a SMILES is read from it. * marks the point of attachment. hMet = CSCCC[C@H](N)C(=O)O; X1 = CC(C)[C@H](N*)B(O)O

Our source for the IC50, inhibition and Activity values is ChEMBL document CHEMBL5576065, “Identification of highly potent and selective HTRA1 inhibitors” (Bioorg Med Chem Lett, 2024).

Broadly, the IC50 is the midpoint of a concentration-inhibition curve. Higher therefore signals weaker potency.

T1 sequence (Q92743 whole entry): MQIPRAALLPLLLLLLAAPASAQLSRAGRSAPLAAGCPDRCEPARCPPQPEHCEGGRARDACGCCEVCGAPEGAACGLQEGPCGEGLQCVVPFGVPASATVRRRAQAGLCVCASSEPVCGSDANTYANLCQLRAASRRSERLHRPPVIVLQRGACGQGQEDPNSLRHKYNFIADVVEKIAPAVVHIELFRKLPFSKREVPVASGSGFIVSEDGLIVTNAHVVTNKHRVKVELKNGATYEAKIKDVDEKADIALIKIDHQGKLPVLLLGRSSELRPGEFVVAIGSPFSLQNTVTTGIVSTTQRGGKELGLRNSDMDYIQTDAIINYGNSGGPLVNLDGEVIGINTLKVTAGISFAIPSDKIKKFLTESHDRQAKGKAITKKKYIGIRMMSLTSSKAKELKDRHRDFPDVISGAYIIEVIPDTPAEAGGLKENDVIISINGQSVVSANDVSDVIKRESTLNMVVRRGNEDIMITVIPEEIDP
Kallikrein-7 (Homo sapiens), sequence (P49862 30-253 limits assumed): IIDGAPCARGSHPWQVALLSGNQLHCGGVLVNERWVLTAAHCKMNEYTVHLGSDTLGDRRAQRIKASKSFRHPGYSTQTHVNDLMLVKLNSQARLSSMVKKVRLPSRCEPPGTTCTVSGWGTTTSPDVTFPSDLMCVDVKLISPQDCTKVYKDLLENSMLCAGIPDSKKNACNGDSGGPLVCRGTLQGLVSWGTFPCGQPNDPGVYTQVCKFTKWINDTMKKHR

The compound `CC(C)C[C@H](NC(=O)[C@H](CCCCN)NC(=O)OCc1ccccc1)C(=O)N[C@H](B(O)O)C(C)C` yielded an IC50 in experiment [1] of 15300 nM.

In experiment [1], `CC(C)C[C@H](NC(=O)[C@H](CC1CCCCC1)NC(=O)OCc1ccccc1)C(=O)N[C@H](B(O)O)C(C)C` came in with an IC50 of 466 nM.

Compound `CC(C)C[C@H](NC(=O)[C@H](Cc1ccc(Cl)cc1)NC(=O)OCc1ccccc1)C(=O)N[C@H](B(O)O)C(C)C` came in with an IC50 in experiment [1] of 73 nM.

Take `CSCCC[C@H](NC(=O)[C@@H]1CCCN1C(=O)[C@@H](N)CC(=O)O)C(=O)N[C@@H](Cc1ccccc1)C(=O)N[C@@H](CCCCN)C(=O)N[C@@H](CC(C)C)C(=O)N[C@H](B(O)O)C(C)C` (H-DP[hMet]FKL-X1): the IC50 in experiment [1] stood at 2600 nM.

In experiment [1], `CC(C)C[C@H](NC(=O)[C@H](Cc1cccc(Cl)c1)NC(=O)C(C)(C)Cc1ccccc1)C(=O)N[C@H](B(O)O)C(C)C` had an IC50 of 11 nM.

In turn, `Cc1cccc(C[C@H](NC(=O)OCc2ccccc2)C(=O)N[C@@H](CC(C)C)C(=O)N[C@H](B(O)O)C(C)C)c1` registered an IC50 in experiment [1] of 45 nM. Against the preceding compound, the IC50 is about 4.1-fold higher.

The compound `CC(C)C[C@H](NC(=O)[C@H](Cc1cccc(F)c1)NC(=O)OCc1ccccc1)C(=O)N[C@H](B(O)O)C(C)C` registered an IC50 in experiment [1] of 88 nM.

Turning to `CCCCC[C@H](NC(=O)OCc1ccccc1)C(=O)N[C@@H](CC(C)C)C(=O)N[C@H](B(O)O)C(C)C`, the IC50 in experiment [1] stood at 1920 nM.

Regarding `CC(C)C[C@H](NC(=O)[C@H](Cc1ccccc1)NC(=O)OCc1ccccc1)C(=O)N[C@H](B(O)O)C(C)C`, the IC50 in experiment [1] turned out to be 411 nM.

With `CC(C)C[C@H](NC(=O)[C@H](Cc1cccc(Br)c1)NC(=O)OCc1ccccc1)C(=O)N[C@H](B(O)O)C(C)C`, in experiment [1], the IC50 came out at 17 nM.

`CC(C)C[C@H](NC(=O)[C@H](Cc1cccc(Cl)c1)NC(=O)NCc1ccccc1)C(=O)N[C@H](B(O)O)C(C)C`: in experiment [1], the IC50 turned out to be 495 nM.

In turn, `CC(C)C[C@H](NC(=O)[C@H](Cc1ccc[n+]([O-])c1)NC(=O)OCc1ccccc1)C(=O)N[C@H](B(O)O)C(C)C` gave an IC50 in experiment [1] of 654 nM. This IC50 and that of the compound before are within 1.5-fold of each other.

With `CC(C)C[C@H](NC(=O)[C@H](Cc1cccc(Cl)c1)NC(=O)OCc1ccccc1)C(=O)N[C@H](B(O)O)C(C)C`, the IC50 in experiment [1] is 10 nM. Besides, the inhibition entry in experiment [2], in experiment [3], in experiment [4] and in experiment [5] was “inactive” in each case. The Activity in experiment [6] was found to be 0%.

With `CC(C)C[C@H](NC(=O)[C@H](Cc1cccc(Cl)c1)NCCCc1ccccc1)C(=O)N[C@H](B(O)O)C(C)C`, half-maximal inhibition in experiment [1] (IC50) was put at 4900 nM.

`CC(C)C[C@H](NC(=O)[C@H](Cc1cc[n+]([O-])cc1)NC(=O)OCc1ccccc1)C(=O)N[C@H](B(O)O)C(C)C` had an IC50 in experiment [1] of 1540 nM.

As to `CC(C)C[C@H](NC(=O)[C@H](Cc1cccc(Cl)c1)NC(=O)CCc1ccccc1)C(=O)N[C@H](B(O)O)C(C)C`, in experiment [1], the IC50 was 104 nM.

With `CC(C)C[C@H](NC(=O)[C@H](Cc1cccc(Cl)c1)NC(=O)C(C)(C)Cc1ccccc1)C(=O)N[C@H](B(O)O)C1CCC1`, the IC50 in experiment [1] was determined as 13 nM. Also, the inhibition entry in experiment [2], in experiment [3], in experiment [4] and in experiment [5] was “inactive” each time. In addition, the Activity in experiment [6] came out at 0%.
